# Test results published in patent US8168770B2, “Cloning, sequencing and expression of a gene encoding an eukaryotic amino acid racemase, and diagnostic, therapeutic, and vaccination applications of parasite and viral mitogens” (priority 1999, dated 2012).
# Entries after “also recorded” stand apart in the source; their conditions may differ.
# Legend:
# [1] = system: splenocytes from BALB/c mice; test: In vitro proliferation assay of splenocytes (3H-thymidine uptake); type: cell-based, mouse; conditions: for mitogenic activity of rTcPA45 in cultures supplemented with substrate: 50 μg/ml rTcPA45, increasing amounts of L- or D-proline, 3 mM to 50 mM; for cell proliferation with substrate alone: 50 mM L- or D-proline alone; for mitogenic activity of rTcPA45 pre-incubated with inhibitor: 50 μg/ml rTcPA45 pre-incubated 10 min at 37° C. with 1 mM inhibitor; for 3H-thymidine uptake: after 48 h, ConA 10 μg/ml, LPS 5 μg/ml, 5×10^4 cells/well
# Method: Briefly, freshly recovered splenocytes from 8 week old male Balb/c mice seeded at a concentration of 5×10^4 cells/well were incubated for 24, 48 and 72 h in 5% FCS RPMI-1640 medium. A 16 h ^3H-thymidine pulse at 1 μCi/well was performed before harvesting. ^3H-Thymidine uptake was determined in a beta-plate liquid scintillation counter (LKB-Wallac). All points were done in triplicate and the corresponding standard deviation calculated. For comparison, ^3H-thymidine uptake after 48 h in the presence of ConA (10 μg/ml) and LPS (5 μg/ml) was 32000 c.p.m. and 3500 c.p.m., respectively. T-cell depletion was performed by incubating freshly recovered spleen cells for 30 min at 37° C. in the presence of anti-Thy 1.2 monoclonal antibody (Cedarlane) and rabbit complement (Cedarlane). In order to rule out a possible mitogenic effect due to LPS contamination in samples, proliferation assays were also performed on freshly recovered splenocytes from the LPS non-responder mouse strain C3H/Hej. Same levels of proliferation were verified. Balb/c mice were purchased from Charles River, France. C3H/Hej mice were maintained in our animal facilities.
# In vitro proliferation is accomplished using freshly recovered splenocytes from BALB/c mice seeded at a density of 5×10^4 cells/well and incubated for 24, 48 and 72 h with increasing concentrations of total parasite supernatants or recombinant TcPa45 protein or other mitogen (0.07-200 μg/ml) with 0.5 μg/ml of the HPLC fractions, or with the conventionally used mitogens concanavalin A (10 μg/ml) and lipopolysaccharide (5 μg/ml) in 5% FCS in RPMI-1640 complete medium. T-cell depletion is accomplished by incubating freshly recovered spleen cells for 30 min. at 37° C. in the presence of monoclonal antibodies against Thy 1.2 and rabbit complement (Cedarlane, Le Perray en Yvelines, France). Analysis of proliferative activity of total splenocytes (5×10^4 cells/well) in the presence of 50 μg/ml enzymatically active rTcPA45 or other mitogen is also compared with the proliferation obtained using the same amounts of rTcPA45 protein or other mitogen lacking racemase activity (by heating for 10 min. at 30° C. or by long term storage at 4° C.). Inhibition of proliferation is obtained by adding to the splenocyte cultures 50 μg/ml rTcPA45 or other mitogen pre-incubated for 10 min. at 37° C. with 1 mM inhibitor, either specific (pyrrole-2-carboxylic acid) or nonspecific (iodoacetamide or iodoacetate). Competitive assays of proliferative activity by 50 μg/ml rTcPA45 or other mitogen are done by adding increasing concentrations of specific substrates i.e., proline racemase substrates (L- or D-proline) for the mitogen rTcPA45 ranging from 3 mM to 50 mM. Controls include the incubation of splenocytes (5×10^4 cells/well) with substrate alone, i.e., 50 mM L- or D-proline in RPMI medium alone for prline racemase. Cultures are collected after a 16-hour pulse or 1 μCi/well ^3H-thymidine uptake was determined in a beta-plate liquid scintillation counter (LKB-Wallac, Orsay, France). All data points are obtained in triplicate and the corresponding standard deviation is calculated.
# 5×10^5 naive spleen cells/well (96 well plate) were stimulated in vitro with different doses of rTcPA45 (ranging in FIG. 4b from 0.8 to 200 μg/ml final) for 24, 48 and 72 h, at 37° C., 5% CO2. Cultures were pulsed with ^3H-Thymidine (1 μCi/well) for 16-18 h before harvesting. ^3H-thymidine incorporation was obtained after counting using a beta-plate. Results present arithmetic means of c.p.m. (counts/minute) from 6 wells/dose of rTcPA45 or wells containing medium alone (+/−SD of the means).
# rTcPA45 proline racemase = target: T1, rTcPA45 proline racemase (Trypanosoma cruzi, UniProt Q4DA80); type: biochemical; conditions: inhibitors 6 mM to 100 mM
# T1 construct: 6xHis (C); made in house; host or cells: E. coli (pET28b(+))
# T1 sequence (Q4DA80 30-423): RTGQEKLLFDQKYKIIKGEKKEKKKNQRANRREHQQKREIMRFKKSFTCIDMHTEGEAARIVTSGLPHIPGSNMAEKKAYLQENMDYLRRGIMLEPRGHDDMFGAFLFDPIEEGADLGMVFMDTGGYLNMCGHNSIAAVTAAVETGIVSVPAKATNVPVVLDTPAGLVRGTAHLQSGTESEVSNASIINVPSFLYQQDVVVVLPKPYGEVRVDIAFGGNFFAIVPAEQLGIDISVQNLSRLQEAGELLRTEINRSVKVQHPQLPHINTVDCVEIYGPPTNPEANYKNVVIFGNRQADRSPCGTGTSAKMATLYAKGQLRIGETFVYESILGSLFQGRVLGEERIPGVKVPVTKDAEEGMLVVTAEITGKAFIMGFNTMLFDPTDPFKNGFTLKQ
# Method: To investigate the genomic organization and transcription of the Tc45 gene, Southern and Northern blot analyses were done. FIG. 4 depicts the results of characterization of rTcPA45 activities. FIG. 4, part a, is an 8% SDS-PAGE gel of rTcPA45 (Coomasie blue staining). Part b depicts the proliferative activity of total splenocytes (5×10^4 cells/well) in the presence of increasing concentrations of rTcPA45 (μg/ml). […] Reaction conditions were: 0.2 M Na-acetate/25 mM β-mercaptoethanol buffer, pH6, rTcPA45 (3 μg/ml), 30 min incubation at 37° C. in 500 μl. The reaction was stopped by incubating for 10 min at 80° C. […] Reactions were carried out for 30 min at 37° C. and stopped for 5 min at 80° C. All reagents and inhibitors were purchased from Sigma. The shift in optical rotation was measured in a Polarimeter 241 MC (Perkin Elmer).
# A suitable test for testing an active molecule inhibiting the polypeptide according to the invention is performed as follows: • The recombinant amino acid purified or native racemase is diluted in sodium acetate buffer or Tris or phophate on Hepes buffer at 3 micrograms per 500 microliters in the presence of 20 millmolar of beta mercepto ethanol and 10 to 80 millimolar of L or D substrate and containing various concentrations of active molecule to be tested. This reaction is incubated for 30 minutes at 37° C. and stopped by heating at 80° C. Variations in optical rotation are measured by a polarimeter.
# 3 μg of rTcPA45 was diluted in 500 μl of buffer (0.2M NaOAc, 20 mM β-mercaptoethanol, pH6.0) containing different concentrations of the substrate (10-80 mM or L- or D-proline). (See FIG. 4c.) The reaction was incubated for 30-60 minutes at 37° C. in a water bath, followed by heat inactivation of the enzyme for 10 minutes at 80° C. Each sample is diluted to 1.5 ml with water and the mixture submitted to measurement of optical rotation using a polarimeter, at 365 nm. A sample without enzyme is used as a control. […]
# The percent of racemization of different concentrations of L-proline, D-proline, L-hydroxy-proline and D-hydroxy-proline substrates was calculated by incubating a 500-μl mixture of 3 μg TcPA45 and 10-80 mM substrate in 0.2 M sodium acetate and 25 mM β-mercaptoethanol, pH 6, for 30 min at 37° C. […] Water (1 ml) was then added, and the optical rotation was measured in polarimeter 241 MC (Perkin Elmer, Montignyle Bretonneux, France) at a wavelength of 365 nm, in a cell with a path length of 10 cm. […] The percent racemization of 80 mM L-proline as a function of pH was determined using 0.2 M sodium acetate, potassium phosphate and Tris-HCl buffers containing 25 mM β-mercaptoethanol; reactions were incubated for 30 min at 37° C. as described above. […]
molecule,measurement,setting,value
O=C(O)[C@H]1CCCN1 [D-proline],mitogenic activity of rTcPA45 in cultures supplemented with substrate,[1],affected considerably; also recorded: decrease
same,cell proliferation with substrate alone,[1],no cell proliferation
O=C(O)[C@@H]1CCCN1 [L-proline],mitogenic activity of rTcPA45 in cultures supplemented with substrate,[1],affected considerably; also recorded: decrease
same,cell proliferation with substrate alone,[1],no cell proliferation
NC(=O)CI [iodoacetamide],mitogenic activity of rTcPA45 pre-incubated with inhibitor,[1],abolished
same,inhibition of rTcPA45 enzymatic activity (racemization of 80 mM L-proline),rTcPA45 proline racemase,inhibited to different extents
O=C(O)CI [iodoacetate],mitogenic activity of rTcPA45 pre-incubated with inhibitor,[1],abolished
same,inhibition of rTcPA45 enzymatic activity (racemization of 80 mM L-proline),rTcPA45 proline racemase,inhibited to different extents
O=C(O)/C=C\C(=O)O [maleic acid],inhibition of rTcPA45 enzymatic activity (racemization of 80 mM L-proline),rTcPA45 proline racemase,inhibited to different extents
O=C(O)c1ccc[nH]1 [pyrrole-2-carboxylic acid],mitogenic activity of rTcPA45 pre-incubated with inhibitor,[1],abolished
same,inhibition of rTcPA45 enzymatic activity (racemization of 80 mM L-proline),rTcPA45 proline racemase,inhibited to different extents
concanavalin A [ConA],3H-thymidine uptake,[1],32000 c.p.m.
same,3H-thymidine uptake,[1]; listed as concavalin A,"32,000 c.p.m."
lipopolysaccharide [LPS],3H-thymidine uptake,[1],3500 c.p.m.
same,3H-thymidine uptake,[1]; listed as lipopolysaccharide,"3,500 c.p.m."
